# ChEMBL document CHEMBL1201862, “PubChem BioAssay data set” (2004)
# “And” between values parts separate entries of the source, which are not always exact repeats. Equal values may be shown once.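 The compound was tested at five concentrations on cells cultured in 96-well plates, with a 48-hour exposure period. Here, GI50 denotes the concentration required for 50% inhibition of growth.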 The source made the active and inactive calls. Rule as the data show it: active = GI50 up to about 1.1 µM and inactive = higher.
# Experiments:
# Experiment in all cases: growth of human tumour cells (NCI), 48 h
# MOLT-4 = test system: MOLT-4
# HCT-116 = test system: HCT-116
# A498 = test system: A498
# XF498 = test system: XF498
# NCI-H460 = test system: NCI-H460
# SF-295 = test system: SF-295
# ACHN = test system: ACHN
# OVCAR-4 = test system: OVCAR-4
# OVCAR-3 = test system: OVCAR-3
# SK-MEL-28 = test system: SK-MEL-28
# NCI-H522 = test system: NCI-H522
# LXFL 529 = test system: LXFL 529
# SK-MEL-2 = test system: SK-MEL-2
# SK-OV-3 = test system: SK-OV-3
# RXF 393 = test system: RXF 393
# TK-10 = test system: TK-10
# RPMI-8226 = test system: RPMI-8226
# IGROV-1 = test system: IGROV-1
# HCC 2998 = test system: HCC 2998
# DMS-273 = test system: DMS-273
# UACC-257 = test system: UACC-257
# NCI-H226 = test system: NCI-H226
# CAKI-1 = test system: CAKI-1
# OVCAR-5 = test system: OVCAR-5
# EKVX = test system: EKVX
# DMS-114 = test system: DMS-114
# HT-29 = test system: HT-29
# SNB-78 = test system: SNB-78
# SW-620 = test system: SW-620
# HL-60 = test system: HL-60
# M19-MEL = test system: M19-MEL
# Malme-3M = test system: Malme-3M
# M14 = test system: M14
# SF-539 = test system: SF-539
# SF-268 = test system: SF-268
# HOP-92 = test system: HOP-92
# COLO 205 = test system: COLO 205
# DLD-1 = test system: DLD-1
# SN12C = test system: SN12C
# SR = test system: SR
# 786-0 = test system: 786-0
# UO-31 = test system: UO-31
# HOP-62 = test system: HOP-62
# SNB-75 = test system: SNB-75
# NCI-H23 = test system: NCI-H23
# CCRF-CEM = test system: CCRF-CEM
# UACC-62 = test system: UACC-62
# K562 = test system: K562
# KM-20L2 = test system: KM-20L2
# A549 = test system: A549
# SNB-19 = test system: SNB-19
# LOX IMVI = test system: LOX IMVI
# U-251 = test system: U-251
# KM12 = test system: KM12
# HCT-15 = test system: HCT-15
# OVCAR-8 = test system: OVCAR-8
# SK-MEL-5 = test system: SK-MEL-5
# HOP-18 = test system: HOP-18
structure (smiles),measurement,setting,value
CC(=O)OCC1OC(n2c(-c3ccccc3)cc(-c3ccco3)c(C#N)c2=O)C(OC(C)=O)C(OC(C)=O)C1OC(C)=O (configuration not stated),GI50,MOLT-4,> 22.8 µM (inactive) and 14.8 µM (inactive)
same,GI50,HCT-116,7.46 µM (inactive) and 5.86 µM (inactive)
same,GI50,A498,> 100 µM (inactive) and 68.1 µM (inactive)
same,GI50,XF498,16.2 µM (inactive)
same,GI50,NCI-H460,57.4 µM (inactive)
same,GI50,SF-295,39.9 µM (inactive) and 57.5 µM (inactive)
same,GI50,ACHN,76.7 µM (inactive) and 49.7 µM (inactive)
same,GI50,OVCAR-4,> 56.6 µM (inactive) and 74.3 µM (inactive)
same,GI50,OVCAR-3,33.3 µM (inactive) and > 31.6 µM (inactive)
same,GI50,SK-MEL-28,22.3 µM (inactive) and 39.3 µM (inactive)
same,GI50,NCI-H522,29.5 µM (inactive) and 20.7 µM (inactive)
same,GI50,LXFL 529,12.7 µM (inactive) and > 10 µM (inactive)
same,GI50,SK-MEL-2,14.6 µM (inactive) and 28.1 µM (inactive)
same,GI50,SK-OV-3,> 100 µM (inactive) and 98.6 µM (inactive)
same,GI50,RXF 393,> 32.1 µM (inactive) and 19.3 µM (inactive)
same,GI50,TK-10,> 31.6 µM (inactive) and 27.2 µM (inactive)
same,GI50,RPMI-8226,8.38 µM (inactive)
same,GI50,IGROV-1,> 31.6 µM (inactive) and 36.8 µM (inactive)
same,GI50,HCC 2998,> 100 µM (inactive) and 52.4 µM (inactive)
same,GI50,DMS-273,25.8 µM (inactive) and 36.3 µM (inactive)
same,GI50,UACC-257,> 89.1 µM (inactive) and 75.7 µM (inactive)
same,GI50,NCI-H226,> 100 µM (inactive)
same,GI50,CAKI-1,52.5 µM (inactive)
same,GI50,OVCAR-5,> 100 µM (inactive)
same,GI50,EKVX,> 100 µM (inactive)
same,GI50,DMS-114,28.8 µM (inactive) and 30.5 µM (inactive)
same,GI50,HT-29,> 100 µM (inactive)
same,GI50,SNB-78,45.7 µM (inactive) and 25.9 µM (inactive)
same,GI50,SW-620,> 31.6 µM (inactive) and 49.3 µM (inactive)
same,GI50,HL-60,3.84 µM (inactive)
same,GI50,M19-MEL,54.6 µM (inactive) and 30.9 µM (inactive)
CCNC1CC(n2cc(C)c(=O)[nH]c2=O)OC1CO (configuration not stated),GI50,MOLT-4,> 100 µM (inactive)
same,GI50,HCT-116,> 100 µM (inactive)
same,GI50,Malme-3M,> 100 µM (inactive)
same,GI50,A498,> 100 µM (inactive)
same,GI50,M14,> 100 µM (inactive)
same,GI50,XF498,> 100 µM (inactive)
same,GI50,NCI-H460,> 100 µM (inactive)
same,GI50,OVCAR-4,> 100 µM (inactive)
same,GI50,SF-539,> 100 µM (inactive)
same,GI50,SF-268,> 100 µM (inactive)
same,GI50,HOP-92,> 100 µM (inactive)
same,GI50,SK-MEL-28,> 100 µM (inactive)
same,GI50,NCI-H522,> 100 µM (inactive)
same,GI50,LXFL 529,> 100 µM (inactive)
same,GI50,COLO 205,> 100 µM (inactive)
same,GI50,SK-MEL-2,> 100 µM (inactive)
same,GI50,SK-OV-3,> 100 µM (inactive)
same,GI50,RPMI-8226,> 100 µM (inactive)
same,GI50,IGROV-1,> 100 µM (inactive)
same,GI50,HCC 2998,> 100 µM (inactive)
same,GI50,DMS-273,> 100 µM (inactive)
same,GI50,DLD-1,> 100 µM (inactive)
same,GI50,SN12C,> 100 µM (inactive)
same,GI50,SR,> 100 µM (inactive)
same,GI50,NCI-H226,> 100 µM (inactive)
same,GI50,786-0,> 100 µM (inactive)
same,GI50,CAKI-1,> 100 µM (inactive)
same,GI50,UO-31,> 100 µM (inactive)
same,GI50,HOP-62,> 100 µM (inactive)
same,GI50,SNB-75,> 100 µM (inactive)
same,GI50,NCI-H23,> 100 µM (inactive)
same,GI50,CCRF-CEM,> 100 µM (inactive)
same,GI50,UACC-62,> 100 µM (inactive)
same,GI50,K562,> 100 µM (inactive)
same,GI50,DMS-114,> 100 µM (inactive)
same,GI50,SNB-78,> 100 µM (inactive)
same,GI50,HL-60,> 100 µM (inactive)
same,GI50,M19-MEL,> 100 µM (inactive)
O=C1N(c2ccccc2)C2(O)C(=O)c3ccccc3C2(O)N1c1ccccc1 (configuration not stated),GI50,MOLT-4,> 100 µM (inactive)
same,GI50,HCT-116,> 100 µM (inactive)
same,GI50,Malme-3M,> 100 µM (inactive)
same,GI50,A498,> 100 µM (inactive)
same,GI50,M14,> 100 µM (inactive)
same,GI50,KM-20L2,> 100 µM (inactive)
same,GI50,NCI-H460,> 100 µM (inactive)
same,GI50,A549,> 100 µM (inactive)
same,GI50,SNB-19,> 100 µM (inactive)
same,GI50,SF-295,> 100 µM (inactive)
same,GI50,ACHN,> 100 µM (inactive)
same,GI50,OVCAR-4,> 100 µM (inactive)
same,GI50,SF-539,> 100 µM (inactive)
same,GI50,OVCAR-3,> 100 µM (inactive)
same,GI50,SF-268,> 100 µM (inactive)
same,GI50,SK-MEL-28,> 100 µM (inactive)
same,GI50,NCI-H522,> 100 µM (inactive)
same,GI50,LXFL 529,> 100 µM (inactive)
same,GI50,COLO 205,> 100 µM (inactive)
same,GI50,LOX IMVI,> 100 µM (inactive)
same,GI50,SK-MEL-2,> 100 µM (inactive)
same,GI50,SK-OV-3,> 100 µM (inactive)
same,GI50,RXF 393,> 100 µM (inactive)
same,GI50,TK-10,> 100 µM (inactive)
same,GI50,RPMI-8226,> 100 µM (inactive)
same,GI50,IGROV-1,> 100 µM (inactive)
same,GI50,HCC 2998,> 100 µM (inactive)
same,GI50,DMS-273,> 100 µM (inactive)
same,GI50,UACC-257,> 100 µM (inactive)
same,GI50,DLD-1,> 100 µM (inactive)
same,GI50,SN12C,> 100 µM (inactive)
same,GI50,U-251,> 100 µM (inactive)
same,GI50,SR,> 100 µM (inactive)
same,GI50,NCI-H226,> 100 µM (inactive)
same,GI50,786-0,> 100 µM (inactive)
same,GI50,CAKI-1,> 100 µM (inactive)
same,GI50,KM12,> 100 µM (inactive)
same,GI50,UO-31,> 100 µM (inactive)
same,GI50,HOP-62,> 100 µM (inactive)
same,GI50,HCT-15,> 100 µM
same,GI50,SNB-75,> 100 µM (inactive)
same,GI50,NCI-H23,> 100 µM (inactive)
same,GI50,CCRF-CEM,> 100 µM (inactive)
same,GI50,OVCAR-5,> 100 µM (inactive)
same,GI50,UACC-62,> 100 µM (inactive)
same,GI50,OVCAR-8,> 100 µM (inactive)
same,GI50,K562,> 100 µM (inactive)
same,GI50,EKVX,> 100 µM (inactive)
same,GI50,SK-MEL-5,> 100 µM (inactive)
same,GI50,DMS-114,> 100 µM (inactive)
same,GI50,HT-29,> 100 µM (inactive)
same,GI50,HOP-18,> 100 µM (inactive)
same,GI50,SNB-78,> 100 µM (inactive)
same,GI50,SW-620,> 100 µM (inactive)
same,GI50,M19-MEL,> 100 µM (inactive)
Nc1ccccc1SC(/C=C/NNC1=NN=C(c2ccccc2)C(c2ccccc2)N1)c1ccccc1 (configuration not stated),GI50,MOLT-4,3.64 µM (inactive)
same,GI50,Malme-3M,15.9 µM (inactive)
same,GI50,A498,20.4 µM (inactive)
same,GI50,M14,12.4 µM (inactive)
same,GI50,KM-20L2,21 µM (inactive)
same,GI50,NCI-H460,18.5 µM (inactive)
same,GI50,A549,15.2 µM (inactive)
same,GI50,SNB-19,18.7 µM (inactive)
same,GI50,SF-295,12.1 µM (inactive)
same,GI50,ACHN,14.9 µM (inactive)
same,GI50,OVCAR-4,14.9 µM (inactive)
same,GI50,SF-539,13.2 µM (inactive)
same,GI50,OVCAR-3,13 µM (inactive)
same,GI50,SF-268,5.64 µM (inactive)
same,GI50,HOP-92,8.57 µM (inactive)
same,GI50,SK-MEL-28,13.7 µM (inactive)
same,GI50,NCI-H522,3.85 µM (inactive)
same,GI50,COLO 205,15.6 µM (inactive)
same,GI50,LOX IMVI,12.7 µM (inactive)
same,GI50,SK-MEL-2,17.7 µM (inactive)
same,GI50,SK-OV-3,29.6 µM (inactive)
same,GI50,RXF 393,14 µM (inactive)
same,GI50,TK-10,19 µM (inactive)
same,GI50,RPMI-8226,2.96 µM (inactive)
same,GI50,IGROV-1,15.4 µM (inactive)
same,GI50,HCC 2998,16.5 µM (inactive)
same,GI50,DMS-273,16.9 µM (inactive)
same,GI50,UACC-257,13.5 µM (inactive)
same,GI50,DLD-1,12.9 µM (inactive)
same,GI50,SN12C,17 µM (inactive)
same,GI50,U-251,15 µM (inactive)
same,GI50,NCI-H226,13.7 µM (inactive)
same,GI50,786-0,12.2 µM (inactive)
same,GI50,CAKI-1,10.6 µM (inactive)
same,GI50,KM12,12.7 µM (inactive)
same,GI50,UO-31,4.45 µM (inactive)
same,GI50,HOP-62,19.5 µM (inactive)
same,GI50,HCT-15,11.5 µM
same,GI50,SNB-75,4.72 µM (inactive)
same,GI50,NCI-H23,5.85 µM (inactive)
same,GI50,CCRF-CEM,2.59 µM (inactive)
same,GI50,OVCAR-5,20.8 µM (inactive)
same,GI50,UACC-62,10.6 µM (inactive)
same,GI50,OVCAR-8,18.1 µM (inactive)
same,GI50,K562,9.25 µM (inactive)
same,GI50,EKVX,15.4 µM (inactive)
same,GI50,SK-MEL-5,13.4 µM (inactive)
same,GI50,DMS-114,13.6 µM (inactive)
same,GI50,HT-29,17.1 µM (inactive)
same,GI50,SNB-78,18 µM (inactive)
same,GI50,SW-620,11.7 µM (inactive)
same,GI50,HL-60,3.32 µM (inactive)
same,GI50,M19-MEL,11.4 µM (inactive)
